# Assay results as given in patent publication US5591741A, “Fungicidal spiroheterocyclic derivatives” (American Cyanamid Company, priority 1993, dated 1997).
# What was measured:
# Plasmopara viticola = assay: Antisporulant activity against vine downy mildew (PVA); assay type: in vivo; details: vine leaves, antisporulant foliar spray, 600 ppm, 750 l/ha
# Experimental: (a) Antisporulant activity against vine downy mildew (Plasmopara viticola; PVA) The test is a direct antisporulant one using a foliar spray. The lower surfaces of leaves of whole vine plants (cv Cabernet Sauvignon), approximately 8 cm high, are inoculated by spraying with an aqueous suspension containing 5×10^4 zoosporangia/ml. The inoculated plants are kept for 24 hours at 21° C. in a high humidity compartment, then 24 hours at glasshouse ambient temperature and humidity. Infected leaves are sprayed on their lower surfaces with a solution of active material in 1:1 water/acetone containing 0.04% "TWEEN 20" (Trade Mark; a polyoxyethylene sorbitan ester surfactant). Plants are treated using an automated sprayline with an atomising nozzle. The concentration of the compound is 600 ppm, and the spray volume is 750 l/ha. After spraying, the plants are returned to normal glasshouse conditions for 96 hours and are then transferred to the high humidity compartment for 24 hours to induce sporulation. Assessment is based on the percentage of the leaf area covered by sporulation compared with that on control leaves. The extent of disease control in all the above tests is expressed as a rating compared with either an untreated control or a diluent-sprayed-control, according to the criteria: […]
# [1] = system: Erysiphe graminis f.sp. hordei; assay: Activity against barley powdery mildew, direct therapeutic (EGT); assay type: in vivo; details: direct therapeutic foliar spray, 600 ppm, up to 7 days
# Experimental: (e) Activity against barley powdery mildew (Erysiphe graminis f.sp. hordei; EGT) The test is a direct therapeutic foliar spray. Leaves of barley seedlings, (cv. Golden Promise) at the single leaf stage are inoculated by dusting with mildew conidia one day prior to treatment with the test compound. The inoculated plants are kept overnight at glasshouse ambient temperature (18° C.) and humidity (40%) prior to treatment. The plants are sprayed with the test compound at a dosage of 600 ppm using an automated sprayline as described under (a). After drying, plants are returned to a compartment at 18° C. and 40% humidity for up to 7 days. Assessment is based on the percentage of leaf area covered by sporulation compared with that on leaves of control plants. The extent of disease control in all the above tests is expressed as a rating compared with either an untreated control or a diluent-sprayed-control, according to the criteria: […]
# [2] = system: Erysiphe graminis f.sp. hordei; assay: Direct protectant activity against barley powdery mildew (EGP); assay type: in vivo; details: direct protectant foliar spray, 8 days
# Experimental: (f) Direct protectant activity against barley powdery mildew (Erysiphe graminis f.sp. hordei; EGP) The test is a direct protectant foliar spray. Leaves of barley seedlings (cv Golden Promise) at the single leaf stage are sprayed with the test compound as described under (a). After drying, the plants are kept for 24 hours in a glasshouse at 18° C. and 40% R.H. Then the plants are inoculated by dusting with mildew conidia and kept at 18° C. and 40% R.H. for 8 days. Assessment is based on the percentage of leaf area covered by sporulation compared with that on leaves of control plants. The extent of disease control in all the above tests is expressed as a rating compared with either an untreated control or a diluent-sprayed-control, according to the criteria: […]
# Phytophthora infestans = assay type: in vivo; details: tomato, direct protectant foliar spray
# Alternaria solani = assay: Activity against tomato early blight (AS); assay type: in vivo; details: Table VI; tomato seedlings, contact prophylactic foliar spray, 4 days
# Experimental: b) Activity against tomato early blight (Alternaria solani; AS) This test measures the contact prophylactic activity of test compounds applied as a foliar spray. Tomato seedlings (cv Outdoor Girl) are grown to the stage at which the second true leaf is expanded. The plants are treated using an automated sprayline as described under (a). Test compounds are applied as solutions or suspensions in a mixture of acetone and water (50:50 v/v) containing 0.04% surfactant ("TWEEN 20"--Trade Mark). After drying the plants are kept for 24 hours in a glasshouse at 20° C. and 40% R.H., followed by inoculation of the leaf upper surfaces with a suspension of A. solani conidia containing 10^4 spores/ml. For 4 days after inoculation plants are kept moist in a humidity compartment at 21° C. Disease is assessed 4 days after inoculation, based on the percentage of leaf surface area covered by lesions when compared with control plants. The extent of disease control in all the above tests is expressed as a rating compared with either an untreated control or a diluent-sprayed-control, according to the criteria: […]
# [3] = system: Pseudocercosporella herpotrichoides; assay: Activity against wheat eyespot in-vitro (PHI); assay type: cell-based; details: 10 ppm, 10 days, 20° C., mycelial growth
# Experimental: (h) Activity against wheat eyespot in-vitro (Pseudocercosporella herpotrichoides; pHI) This test measures the in vitro activity of compounds against the fungus causing wheat eyespot. The test compound is dissolved or suspended in acetone and is added into 4 ml aliquots of half strength Potato Dextrose Broth (PDB) dispended in 25-compartment petri dishes to give a final concentration of 10ppm. The fungal inoculum consists of mycelial fragments of P. herpotrichoides grown in half strength PDB in shaken flasks and added to the broth to provide 5×10^4 fragments/ml broth. Petri dishes are incubated at 20° C. for 10 days until the assessment of mycelial growth. The extent of disease control in all the above tests is expressed as a rating compared with either an untreated control or a diluent-sprayed-control, according to the criteria: […]
# Botrytis cinerea = assay: Direct protectant activity against broad bean grey mould (BCB); assay type: in vivo; details: direct protectant foliar spray, 600 ppm, 4 days
# Experimental: (c) Direct protectant activity against broad bean grey mould (Botrytis cinerea; BCB) The test is a direct protectant foliar spray. The upper surfaces of leaves of broad bean plants with two leaf pairs (cv The Sutton) are sprayed with the test compound at a dosage of 600 ppm using an automated sprayline as described under (a). 24 hours after spraying the leaves are inoculated with an aqueous suspension containing 10^6 conidia/ml. For 4 days after inoculation plants are kept in a high humidity compartment at 22° C. Disease is assessed 4 days after inoculation, based on the percentage of leaf surface area covered by lesions. The extent of disease control in all the above tests is expressed as a rating compared with either an untreated control or a diluent-sprayed-control, according to the criteria: […]
# Leptosphaeria nodorum = assay: Activity against wheat leafspot (LN); assay type: in vivo; details: direct therapeutic foliar spray, 600 ppm, 6-8 days
# Experimental: (d) Activity against wheat leafspot (Leptosphaeria nodorum; LN.) The test is a direct therapeutic foliar spray. Leaves of wheat plants (cv Norman), at the single leaf stage, are inoculated by spraying with an aqueous suspension containing 1.5×10^6 conidia/ml. The inoculated plants are kept for 24 hours in a high humidity compartment prior to treatment. The plants are sprayed with a solution of the test compound at a dosage of 600 ppm using an automated sprayline as described under (a). After drying, the plants are kept for 6-8 days at 22° C. and moderate humidity (70%). Assessment is based on the density of lesions per leaf compared with that on leaves of control plants. The extent of disease control in all the above tests is expressed as a rating compared with either an untreated control or a diluent-sprayed-control, according to the criteria: […]
# Venturia inaequalis = assay: Activity against apple scab in-vitro (VII); assay type: cell-based; details: 10 ppm, 10 days, 20° C., mycelial growth
# Experimental: (j) Activity against apple scab in-vitro (Venturia inaequalis: VII) This test measures the in-vitro activity of compounds against V. inaequalis that causes apple scab. The test compound in acetone is added into 4 ml aliquots of half strength Potato Dextrose Broth dispensed in 25-compartment petri dishes to give final concentrations of 10 ppm. The fungal inoculum consists of mycelial fragments and spores of V. inaequalis grown on malt agar and added to the broth to provide 5×10^4 propagules/ml broth. Petri dishes are incubated at 20° C. for 10 days until the assessment of mycelial growth. The extent of disease control in all the above tests is expressed as a rating compared with either an untreated control or a diluent-sprayed-control, according to the criteria: […]
# Pyricularia oryzae = assay type: in vivo; details: rice seedlings, direct therapeutic foliar spray, 600 ppm, 4-5 days
# Rhizoctonia solani = assay: Activity against Rhizoctonia in-vitro (RSI); assay type: cell-based; details: 10 ppm, 10 days, 20° C., mycelial growth
# Experimental: (i) Activity against Rhizoctonia in-vitro (Rhizoctonia solani: RSI) This test measures the in-vitro activity of compounds against R. solani that causes stem and root rots. The test compound in acetone is added into 4 ml aliquots of half strength Potato Dextrose Broth dispensed in 25-compartment petri dishes to give final concentrations of 10 ppm. The fungal inoculum consists of mycelial fragments of R. solani growth in half strength PDB in shaken culture flasks and added to the broth to provide 5×10^4 fragments/ml broth. Petri dishes are incubated at 20° C. for 10 days until the assessment of mycelial growth. The extent of disease control in all the above tests is expressed as a rating compared with either an untreated control or a diluent-sprayed-control, according to the criteria: […]
Structure (SMILES),disease control rating PVA (Plasmopara viticola),disease control rating EGT [1],disease control rating EGP [2],disease control rating PIP (Phytophthora infestans),disease control rating AS (Alternaria solani),disease control rating PHI [3],disease control rating BCB (Botrytis cinerea),disease control rating LN (Leptosphaeria nodorum),disease control rating VII (Venturia inaequalis),disease control rating PO (Pyricularia oryzae),disease control rating RSI (Rhizoctonia solani)
CCCCCCCCNC1COC2(CCC(C(C)(C)C)CC2)C1 (stereo not shown) [Compound 7],0 (less than 50% disease control),2 (greater than 80% disease control),2 (greater than 80% disease control),0 (less than 50% disease control),0 (less than 50% disease control),2 (greater than 80% disease control),1 (about 50-80% disease control),0 (less than 50% disease control),2 (greater than 80% disease control),0 (less than 50% disease control),2 (greater than 80% disease control)
CCCCCNC1COC2(CCC(C(C)(C)C)CC2)C1 (stereo not shown) [Compound 8],0 (less than 50% disease control),2 (greater than 80% disease control),2 (greater than 80% disease control),0 (less than 50% disease control),0 (less than 50% disease control),1 (about 50-80% disease control),1 (about 50-80% disease control),0 (less than 50% disease control),1 (about 50-80% disease control),0 (less than 50% disease control),0 (less than 50% disease control)
CC(C)(C)C1CCC2(CC1)CC(N1CCCC1)CO2 (stereo not shown) [Compound 9],0 (less than 50% disease control),2 (greater than 80% disease control),2 (greater than 80% disease control),0 (less than 50% disease control),0 (less than 50% disease control),1 (about 50-80% disease control),0 (less than 50% disease control),1 (about 50-80% disease control),1 (about 50-80% disease control),0 (less than 50% disease control),0 (less than 50% disease control)
CC(C)(C)C1CCC2(CC1)CC(N1CCCCC1)CO2 (stereo not shown) [Compound 10],0 (less than 50% disease control),2 (greater than 80% disease control),2 (greater than 80% disease control),0 (less than 50% disease control),0 (less than 50% disease control),1 (about 50-80% disease control),2 (greater than 80% disease control),1 (about 50-80% disease control),1 (about 50-80% disease control),0 (less than 50% disease control),0 (less than 50% disease control)
CC(C)(C)C1CCC2(CC1)CC(N1CCOCC1)CO2 (stereo not shown) [Compound 11],0 (less than 50% disease control),0 (less than 50% disease control),2 (greater than 80% disease control),0 (less than 50% disease control),0 (less than 50% disease control),1 (about 50-80% disease control),0 (less than 50% disease control),0 (less than 50% disease control),1 (about 50-80% disease control),0 (less than 50% disease control),0 (less than 50% disease control)
